Measured values as given in article PMC9259545, “Impact of poly-arginine peptides R18D and R18 on alteplase and tenecteplase thrombolysis in vitro, and neuroprotective stability to proteolysis” (Journal of Thrombosis and Thrombolysis, 2022).
Non-standard residues stand in square brackets, D forms with d. Residues, ends and D or L forms follow the SMILES beside them.

How the values were obtained:
tPA = molecular target: T1, tPA (Homo sapiens, UniProt P00750); assay: Halo clot thrombolysis assay, tPA thrombolysis of whole blood clots; format: biochemical; settings: tPA 5 nM, 27.5% human plasma
T1 construct: purchased Boehringer Ingelheim, Germany 10 mg vial
T1 sequence (P00750 36-562): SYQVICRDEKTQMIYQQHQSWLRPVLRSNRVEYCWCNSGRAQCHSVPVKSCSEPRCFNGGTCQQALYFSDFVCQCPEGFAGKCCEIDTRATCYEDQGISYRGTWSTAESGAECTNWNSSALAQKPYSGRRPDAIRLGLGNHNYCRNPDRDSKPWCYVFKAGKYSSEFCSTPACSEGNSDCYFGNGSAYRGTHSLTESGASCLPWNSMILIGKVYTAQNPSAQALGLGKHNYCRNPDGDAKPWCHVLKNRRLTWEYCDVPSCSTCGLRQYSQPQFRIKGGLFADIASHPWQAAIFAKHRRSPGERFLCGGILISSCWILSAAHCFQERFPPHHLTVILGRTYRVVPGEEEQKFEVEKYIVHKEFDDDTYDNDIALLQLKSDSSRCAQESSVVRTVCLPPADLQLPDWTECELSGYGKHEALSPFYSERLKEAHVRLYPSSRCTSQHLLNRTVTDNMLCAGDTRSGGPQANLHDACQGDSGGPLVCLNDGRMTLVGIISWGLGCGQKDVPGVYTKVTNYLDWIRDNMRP
Protocol: (§1) We utilised a high throughput 96-well plate thrombolysis assay (“halo clot assay”) based on the procedure developed by Bonnard et al.. To reduce assay components the halo thrombus formation procedure was modified by replacing the original thrombotic mixture consisting of recombinant tissue factor and synthetic phospholipids reconstituted in 30 mM calcium, with thrombin, and reducing the pro-thrombotic volume (i.e., thrombin) from 5 to 3 µL and blood volume from 25 to 12 µL. Another modification to simplify clot formation consisted of adding the thrombin (3 µL; 500 nM in saline) to one side of the well and 12 µL of blood to the opposite side of well, before using a heat stretched Pasteur pipette with sealed end to mix the two liquids together using 4 to 5 circular motions around the edge of the well (halo clot). The original methodology involved adding the 5 μL of the clotting mixture to the edge of the well, and then using a micropipette to slowly release the 25 μL of blood to the edge of the well while at the same time maintaining a circular motion. Plates were incubated in a humidified 37 °C incubator for 1 h before use in the thrombolysis assay.
(§2) The thrombolysis assay involved adding 30 µL of Tris buffer (50 mM Tris–HCl, 100 mM NaCl, pH 7.4) with or without peptide followed by 55 µL Tris buffer containing tPA or TNK (5 nM final concentration) and 50% human plasma (final plasma concentration during thrombolysis 27.5%). The final concentration of peptide during thrombolysis ranged from 0.25 to 16 µM (note: an intravenous dose of R18D at 350 nmol/kg, which is likely to be neuroprotective achieves a Cmax of 0.7–0.9 µM in healthy male and female rats; unpublished observation). […] Following the addition of tPA or TNK into the wells, clot lysis was monitored over a 1-h period at 37 °C using a plate reader (Cytation5, BioTek, USA) by measuring absorbance at 510 nm every 1 min immediately after orbital shaking (205 rpm for 5 s). Controls consisted of wells with no thrombin (100% clot lysis; L100%) and wells with no tPA or TNK (0% clot lysis; L0%). At the 1-h time point, the percentage of thrombolysis (%T) in tPA or TNK treated samples (LTX) was calculated by transforming absorbance values based on the formula: % T = (LTX) − (L0%)/(L100%) − (L0%) × 100. In addition, during the 1-h period of clot lysis lag time and maximal activity (also known as maximum velocity or Vmax) of the thrombolysis reaction were calculated. The lag time is defined as the time interval between the first absorbance reading (time = 0) and the line of maximum slope of the thrombolysis reaction. The maximal activity is calculated from the maximum slope over the time course of the assay and reflects the capacity of an enzyme to catalyse a reaction (i.e., thrombolysis), with higher values representing higher catalytic activity (i.e., tPA/TNK induced plasmin thrombolysis).
(§3) For each thrombolysis assay, replicates for control wells (L0% and L100%) and tPA or TNK only treated wells consisted of n = 4–8. Replicates for tPA or TNK and peptide treated wells consisted of n = 4. For data analysis and graphical representations of the results, data from three independent thrombolytic assays were pooled. Studies consisted of R18D, R18 and NA-1 examined at the 0.5, 1, 2, 4, 8 or 16 µM concentrations performed concurrently on the same 96-well plate, in respective order. In addition, since R18D is known to be resistant to plasmin degradation and appeared to have the most impact on tPA or TNK thrombolysis, a separate set of three independent assays were performed for this peptide alone at concentrations of 0.25, 0.5, 1, 2, 4, 8 or 16 µM. Furthermore, the second dose study with R18D provided the opportunity to include a lower concentration (0.25 µM) of the peptide and to provide comparative data when only one peptide was examined in the thrombolysis assay per 96-well plate as opposed to examining the three peptides concurrently on the same plate. […]

TNK [1] = molecular target: T2, TNK (Homo sapiens, UniProt P00750, H332A/K331A/N152Q/R333A/R334A/T138N); assay: Halo clot thrombolysis assay, TNK thrombolysis of whole blood clots; format: biochemical; settings: TNK 5 nM, 27.5% human plasma
T2 construct: purchased Boehringer Ingelheim 50 mg vial
T2 sequence (P00750 36-562 T138N/N152Q/K331A/H332A/R333A/R334A): as the sequence (P00750 36-562) above, with T103N, N117Q, K296A, H297A, R298A, R299A counted along it
Protocol: as §1, §2, §3

TNK [2] = molecular target: T2, TNK; assay: Neuroprotective proteolytic stability after pre-incubation with TNK (glutamic acid excitotoxicity model, MTS); format: in vitro ADME; settings: 1 or 2 h or overnight (22-24 h)
Protocol: Neuronal cultures were maintained in CO2 incubator.
tPA (1000 µg/mL) or TNK (5000 µg/mL) resuspended in water (Baxter) were used to prepare 10 µg/mL (170 nM; note this is 34 times the concentration used in thrombolysis assay) stocks in MEM/2% B27 supplement (MEM/B27).
All data are presented as mean ± standard deviation (SD).

plasmin = settings: cited from earlier work
Source text: Given the potential future application of the R18D, R18 and NA-1 peptides as ischaemic stroke neurotherapeutics, it is important to establish if they interfere with current and future standard of care treatments, namely alteplase (tPA; recombinant tissue plasminogen activator) and tenecteplase (TNK; a modified version of tPA) thrombolysis, which are routinely administered prior to thrombectomy. […] NA-1 is also degraded by plasmin [8]. Together, these findings confirm that peptides synthesised with D-enantiomer amino acids such as R18D, unlike peptides synthesised with L-enantiomer amino acids are highly resistant to proteolytic degradation and are likely to retain their neuroprotective efficacy ...

[3] = intravenous dose 350 nmol/kg, healthy male and female rats; ref unpublished observation; cited from earlier work
[4] = in the order; 8 (NA-1), unpublished data (R18D); cited from earlier work
Source text: It is important to mention that the results obtained in this study are likely to overestimate any negative effects of R18D, R18 and NA-1 on tPA/TNK lag time and thrombolysis compared with what would occur clinically for several reasons. Firstly, positively charged peptides administered directly into the circulation would have a larger pool of negatively charged plasma proteins such as albumin to bind, and thus reduce any inhibitory electrostatic effects of the peptides on lag time and thrombolysis. In addition, the in vitro thrombolysis assay used in this study was performed in 27.5% plasma wh ...

[5] = concurrent study, 0.5-16 µM peptide
[6] = peptide 16 µM, concurrent study, 37 °C
[7] = separate dose study, R18D alone, 0.25-16 µM

SMILES: N=C(N)NCCC[C@@H](N)C(=O)N[C@H](CCCNC(=N)N)C(=O)N[C@H](CCCNC(=N)N)C(=O)N[C@H](CCCNC(=N)N)C(=O)N[C@H](CCCNC(=N)N)C(=O)N[C@H](CCCNC(=N)N)C(=O)N[C@H](CCCNC(=N)N)C(=O)N[C@H](CCCNC(=N)N)C(=O)N[C@H](CCCNC(=N)N)C(=O)N[C@H](CCCNC(=N)N)C(=O)N[C@H](CCCNC(=N)N)C(=O)N[C@H](CCCNC(=N)N)C(=O)N[C@H](CCCNC(=N)N)C(=O)N[C@H](CCCNC(=N)N)C(=O)N[C@H](CCCNC(=N)N)C(=O)N[C@H](CCCNC(=N)N)C(=O)N[C@H](CCCNC(=N)N)C(=O)N[C@H](CCCNC(=N)N)C(=O)O [R18D] (H-[dR][dR][dR][dR][dR][dR][dR][dR][dR][dR][dR][dR][dR][dR][dR][dR][dR][dR]-OH)
- Effect on tPA thrombolysis maximal activity vs tPA control (tPA; [5]): did not significantly impact tPA thrombolysis maximal activity
- Increase in tPA lag time (tPA; [6]): 5.85 min
- Effect on tPA lag time vs tPA control (tPA; [7]): did not significantly affect tPA lag time at any concentration
- Effect on tPA thrombolysis maximal activity vs tPA control (tPA; [7]): did not significantly impact tPA thrombolysis maximal activity at any concentration
- Effect on percentage tPA thrombolysis at 1 h vs tPA control (tPA; separate dose study, R18D alone, 0.25-16 µM, 37 °C, three independent assays): did not inhibit tPA thrombolysis
- Effect on percentage tPA thrombolysis at 1 h vs tPA control (tPA; three peptides concurrently on the same plate, 0.5-16 µM peptide, Tris pH 7.4, 37 °C, absorbance 510 nm, three independent assays pooled, n = 4, Dunnett's test): did not significantly inhibit thrombolysis
- Effect on TNK thrombolysis maximal activity vs TNK control (TNK [1]; [5]): did not significantly impact TNK thrombolysis maximal activity
- Increase in TNK lag time (TNK [1]; peptide 4 µM, concurrent study, 37 °C): 6.64 min
- Decrease in TNK thrombolysis (TNK [1]; peptide 4 µM, concurrent study, 37 °C, 1 h, p = 0.022): 9.35%
- Increase in TNK lag time (TNK [1]; peptide 8 µM, concurrent study, 37 °C): 9.9 min
- Decrease in TNK thrombolysis (TNK [1]; peptide 8 µM, concurrent study, 37 °C, 1 h, p = 0.044): 8.71%
- Increase in TNK lag time (TNK [1]; [6]): 8.76 min
- Effect on TNK lag time vs TNK control (TNK [1]; [7]): did not impact TNK lag time at any concentration
- Effect on TNK thrombolysis maximal activity vs TNK control (TNK [1]; [7]): did not significantly impact TNK thrombolysis maximal activity at any concentration
- Effect on percentage TNK thrombolysis at 1 h vs TNK control (TNK [1]; separate dose study, R18D alone, 0.25-16 µM, 37 °C, 1 h): did not inhibit TNK thrombolysis
- Resistance to degradation by TNK (TNK [2]; inferred from retained neuroprotection, peptide 2 µM, TNK 170 nM): resistant to degradation
- Neuroprotective efficacy after incubation with TNK (TNK [2]; peptide 2 µM in MEM/B27 with TNK 10 µg/mL (170 nM), 37 °C CO2 incubator, then rat cortical neurons, glutamic acid 100 µM 5 min, MTS viability at 20-24 h, N = 4-8): a similar and a high level of neuroprotective efficacy
- Neuroprotective properties in the glutamic acid excitotoxicity injury model when pre-incubated with plasmin (plasmin): retains its neuroprotective properties
- Sensitivity to proteolytic degradation by plasmin (plasmin): not
- Cmax [3]: 0.7 to 0.9 µM
- In vivo peak plasma concentration [4]: 1 to 5 µM
- Plasma half-life [4]: 5 to 15 min
